In publication PMC4875998, “Liposomal Systems as Nanocarriers for the Antiviral Agent Ivermectin” (International Journal of Biomaterials, 2016):

How the values were obtained:
[1] = Cytotoxicity (methylene blue / MTS assay), CC50; details: African green monkey, Vero-118 cells
[2] = Cytotoxicity (methylene blue / MTS assay), CC50; details: hamster, BHK cells
[3] = Cytotoxicity (methylene blue / MTS assay), CC50; details: mouse, RAW 264.7 cells
Yellow Fever = details: in vitro; cited from earlier work
Dengue Fever = test system: Dengue Fever; set-up: method as in PMID 22535622; details: in vitro; cited from earlier work
Vero-118 cells = experiment: Cytotoxicity (methylene blue / MTS assay), CC50; details: cell lines of Figure 6(b) / Table 2 (Vero-118, BHK, RAW)
Japanese encephalitis = test system: Japanese encephalitis; set-up: method as in PMID 22535622; details: in vitro; cited from earlier work
Huh-7 cells = experiment: Cytotoxicity, CC50; details: read-out: Half maximal cytotoxic concentration (CC50) Huh-7; Huh-7 cells; value not marked with the 48 h footnote
Cytotoxicity, CC50 = details: human, Half maximal cytotoxic concentration (CC50) Huh-7, Huh-7 cells; value not marked with the 48 h footnote
[4] = Cytotoxicity (methylene blue / MTS assay), CC50; details: African green monkey, Vero-F cells
[5] = test system: tick-borne encephalitis viruses; details: in vitro; cited from earlier work

| SMILES | CC50 at 4 days [1] [µM] | CC50 at 4 days [2] [µM] | CC50 at 4 days [3] [µM] | EC50 (Yellow Fever) | EC50 (Dengue Fever) | Times more cytotoxic in comparison to 2-cmc (Vero-118 cells) [times] | EC50 (Japanese encephalitis) | CC50 (Huh-7 cells) [µM] | CC50 (Cytotoxicity, CC50) [µM] | CC50 at 4 days [4] [µM] | EC50 [5] |
| --- | --- | --- | --- | --- | --- | --- | --- | --- | --- | --- | --- |
| C[C@@]1(O)[C@H](O)[C@@H](CO)O[C@H]1n1ccc(N)nc1=O [2-cmc, 2′-c-Methylcytidine] | 117 | 238 | 37.6 | – | – | – | – | – | – | – | – |
| CC[C@H](C)[C@H]1O[C@]2(CC[C@@H]1C)C[C@@H]1C[C@@H](C/C=C(\C)[C@@H](O[C@H]3C[C@H](OC)[C@@H](O[C@H]4C[C@H](OC)[C@@H](O)[C@H](C)O4)[C@H](C)O3)[C@@H](C)/C=C/C=C3\CO[C@@H]4[C@H](O)C(C)=C[C@@H](C(=O)O1)[C@]34O)O2 [Ivermectin, 22,23-dihydroavermectin B1] | 5.7 | 1.5 | 0.8 | subnanomolar range | submicromolar | 10 | submicromolar | 10 | 7.3 | 23.6 | submicromolar |
